These results are taken from patent US7402311B2, “Composition and method for treating non-bacterial cystitis” (priority 2003, dated 2008).

The test system of data set [1] is chronic interstitial cystitis syndromes. As to conditions: patients taking quercetin alone; cited from earlier work.
The subject of data set [2] is patients without positive bacterial cultures localized to the prostatic fluid. Put plainly: Example II: double blind study using 30 patients. The format is in vivo. Here is the method:
A double blind study using 30 patients without positive bacterial cultures localized to the prostatic fluid are enrolled in a double blind study. Seventeen of the patients receive a composition comprised of quercetin in amount of 500 milligrams, bromelin in an amount of 10 milligrams, and papain in an amount of 10 milligrams as the active ingredients thereof. After a randomized study is completed, an additional fifteen patients are treated in an open label study with only the […]. […] The mean symptom score improves from 21.0 to 13.1 in the group receiving quercetin, but from 20.2 to 18.8 in the placebo group. This represents an improvement of 35%. In those patients which receive only the quercetin, without the papain and bromelin, with obtainable secretions, the white blood cell count in the decreases from 16.8 to 5.3, versus a decrease from 13.1 to 8.3 in the placebo patients.

A short description of data set [3]: Tests of bioavailability / transmural intestinal absorption of quercetin. As to conditions: quercetin alone. It is filed as in vivo.

Consider `O=c1c(O)c(-c2ccc(O)c(O)c2)oc2cc(O)cc(O)c12` [quercetin], for which, in data set [1], the pain result was “controlled”, the severe urinary symptoms result is “least likely to improve” and the symptomatic response entry was “significant”. In data set [2] (double blind study), the “improvement of mean symptom score” value stood at 35%. In addition, the “mean symptom score, after treatment” value in data set [2] (double blind study, end value) came to 13.1. The “mean symptom score, before treatment” value in data set [2] (double blind study, start value) worked out at 21.0. The “white blood cell count, after treatment” value in data set [2] (patients with obtainable secretions, end value) is on record as 5.3. Besides, the “white blood cell count, before treatment” value in data set [2] (patients with obtainable secretions, start value) was found to be 16.8. Besides, in data set [3], the bioavailability result is recorded as “does not have a high bioavailability” and the transmural intestinal absorption result is listed as “relatively low”.
